{"source": "patent US20230158152A1", "about": "“PROTEOLYSIS REGULATOR AND METHOD FOR USING SAME” (MEDSHINE DISCOVERY INC., priority 2020, published 2023)", "test_system": "human lung cancer NCI-H2228 cells subcutaneous xenograft tumor", "assay": "In vivo pharmacodynamic study in subcutaneous xenograft tumor NOD SCID mouse model of human lung cancer NCI-H2228 cells", "parameters": "species or system NOD SCID mice", "conditions": "50 mg/kg subcutaneous injection once a day", "description": "Human lung cancer cell NCI-H2228 (ATCC® CRL-5935™) was cultured in vitro in an adherent monolayer in RPMI 1640 medium supplemented with 10% fetal bovine serum, 100 U/mL penicillin and 100 μg/mL streptomycin in an incubator at 37° C. and 5% CO2. Cells were passaged by routine digestion with trypsin-EDTA twice a week. When the cell saturation was 80%-90% and the number met the requirement, the cells are collected, counted, and inoculated.\nNOD SCID mice, female, 6-8 weeks old, weighing 18-22 grams.\n0.2 mL (10×10^6 cells) of NCI-H2228 cells (with matrigel, v/v 1:1) were subcutaneously inoculated into the right back of each mouse. The administration by group was started when the average tumor volume reached 171 mm^3. One administration cycle comprised seven days, with administration once a day. The assay compounds were administered by subcutaneous injection for a total of four cycles. The subcutaneous injection doses of the assay compounds WX001 and WX002 were both 50 mg/kg. Tumor diameter was measured twice a week with a vernier caliper, and tumor volume was measured in cubic millimeters and calculated by the following formula: V=0.5a×b^2, where a and b are the long and short diameters of the tumor, respectively. The tumor-inhibitory efficacy of the assay compounds was evaluated by using TGI (%). TGI (%) reflects a tumor growth inhibition rate. TGI (%)=[1−(Average tumor volume at the end of administration of a treatment group−Average tumor volume at the beginning of administration of the treatment group)/(Average tumor volume at the end of treatment of a vehicle control group−Average tumor volume at the beginning of treatment of the vehicle control group)]×100%.", "data": [{"molecule": "Cc1cc(Nc2ncc(Cl)c(Nc3ccccc3S(=O)(=O)C(C)C)n2)c(OC(C)C)cc1C1CCN(CC(=O)NCCOc2ccc3occ(C4CCC(=O)NC4=O)c3c2)CC1", "note": "(stereo not drawn) [WX001]", "values": [{"measurement": "Tumor volume (Day 1)", "setting": "Day 1", "value": "172 ± 12", "unit": "mm^3"}, {"measurement": "TGI (Day 28)", "setting": "Day 28", "value": 111.22, "unit": "%"}, {"measurement": "Tumor volume (Day 28)", "setting": "Day 28", "value": "102 ± 5", "unit": "mm^3"}]}]}
